# Where a name gives a salt, the structure may show the parent alone. Read-outs that look alike come from different tables or passages of the source.
# Legend:
# Test in all cases: microbe, parasite or virus in culture
# Format in all cases: cell-based
# Chlamydophila caviae = conditions: Chlamydia caviae, Vero, read-out: Avg Activity (C. Caviae)
# vaccinia virus = conditions: Orthopoxvirus vaccinia, read-out: Avg Activity (VV)
# Ebola virus = conditions: Zaire ebolavirus
# Tacaribe virus = conditions: Mammarenavirus tacaribeense, Vero
# La Crosse virus (LACV) = conditions: La Crosse virus, Vero
# dengue virus = test system: dengue virus
# influenza virus = conditions: unidentified influenza virus
# [1] = test system: Rift Valley fever virus (RVFV) vaccine strain MP-12; conditions: Vero
# Andes virus = test system: Andes virus
# HIV-1 = conditions: Human immunodeficiency virus 1, read-out: Misc Virus Activity: HIV-1
# [2] = test system: respiratory syncytial virus; conditions: human respiratory syncytial virus, read-out: Misc Virus Activity: Respiratory Syncytial
# [3] = test system: lymphocytic choriomeningitis virus; conditions: for EC50: Mammarenavirus choriomeningitidis, read-out: Misc Virus Activity: Lymphocytic Choriomeningitis
# [4] = test system: encephalomyocarditis virus; conditions: Cardiovirus A, read-out: Misc Virus Activity: Encephalomyocarditis
# Sindbis virus = conditions: read-out: Misc Virus Activity: Sindbis
# [5] = read-out: Misc Activity: Tacaribe
# [6] = read-out: Misc Activity: Dengue
# [7] = A549, read-out: Misc Activity: Influenza
# [8] = read-out: Misc Virus Activity: Ebola
# [9] = read-out: Misc Virus Activity: Tacaribe
# [10] = read-out: Misc Virus Activity: Rift Valley Fever
# [11] = read-out: Misc Virus Activity: Dengue
# [12] = A549, read-out: Misc Virus Activity: Influenza
Structure (SMILES),EC50 (Chlamydophila caviae) [nM],EC50 (vaccinia virus) [nM],EC50 (Tacaribe virus; [5]) [nM],EC50 (La Crosse virus (LACV); read-out: Avg Activity (LACV)) [nM],EC50 (dengue virus; [6]) [nM],EC50 (influenza virus; [7]) [nM],EC50 (Ebola virus; [8]) [µM],EC50 (Tacaribe virus; [9]) [nM],"EC50 [1, 10] [µM]",Lymphocytic Choriomeningitis: reduces yield [3],EC50 [3] [nM],EC50 (dengue virus; [11]) [nM],EC50 (influenza virus; [12]) [nM],other results
"CC(C)(C)c1ccc(C(=O)NC(=S)Nc2ccc(NC(=O)c3ccccc3Cl)c(N)c2)cc1 [Compound 6, N-[2-amino-4-[(4-tert-butylbenzoyl)-carbamothioylamino]-phenyl]-2-chloro-benzamide hydrochloride]",< 1000,< 1000,< 1000,< 1000,< 1000,< 1000,–,–,–,–,–,–,–,EC50 (Ebola virus; read-out: Misc Activity: Ebola): 1 to 10 µM
"NC(=O)c1ncn([C@@H]2O[C@H](CO)[C@@H](O)[C@H]2O)n1 [ribavirin, reference compound]",–,–,–,–,–,–,–,–,–,–,–,–,–,EC50 ([1]; read-out: EC50 value for RVFV): 300 µM; EC50 (La Crosse virus (LACV); read-out: EC50 value for LACV): 750000 nM
COc1cc(NC(=S)NC(=O)c2ccc(C(C)(C)C)cc2)ccc1NC(=O)c1ccccc1Cl [Compound 39],< 1000,< 1000,–,< 1000,–,–,< 1,< 1000,< 1,(reduces yield >10^4-fold),< 1000,< 1000,< 1000,"Andes: reduces yield (Andes virus): yield >100-fold); EC50 (Andes virus; Orthohantavirus andesense, read-out: Misc Virus Activity: Andes): < 1000 nM; EC50 (HIV-1): < 1000 nM; EC50 [2]: < 1000 nM; EC50 [4]: < 1000 nM; EC50 (Sindbis virus): < 1000 nM"
"CC(C)(C)c1ccc(C(=O)NC(=S)Nc2ccccc2Cl)cc1 [Compound 40, 4-tert-butyl-N-[(2-chlorophenyl)carbamothioyl]-benzamide]",< 1000,< 1000,–,< 1000,–,–,10 to 25,< 1000,< 1,(reduces yield >10^4-fold),< 1000,< 1000,< 1000,–
"CNc1ccc(NC(=S)NC(=O)c2ccc(C(C)(C)C)cc2)cc1 [Compound 21, 4-tert-butyl-N-[[4-(methylamino)phenyl]-carbamothioyl]benzamide hydrochloride]",< 1000,1000 to 10000,< 1000,1000 to 10000,< 1000,< 1000,–,–,–,–,–,–,–,–

# From patent US9566254B2, “Inhibitors and methods of inhibiting bacterial and viral pathogens” (priority 2010, dated 2017)
